Test system: anesthetized open-chest dogs
Experiment: Hemodynamics of anesthetized open-chest dogs, intravenous infusion
Assay type: in vivo, mongrel dogs
Details: 0.3 mg/kg iv
Description: The animals were anesthetized by intravenous injection of 30 mg/kg sodium pentobarbital, tracheally intubated, and mechanically ventilated with positive air pressure. Left thoracotomy was performed through the fourth intercostal space and the heart was suspended in a pericardial cradle, the aortic root was isolated and a probe of blood flow meter (12 or 14 mm in diameter) was fixed to measure the aortic blood flow as a representation of cardiac output (CO), the circumflex branch of left coronary artery was isolated and a probe of blood flow meter (2 or 2.5 mm in diameter) was fixed to measure the coronary blood flow (CBF). A polyethylene catheter filled with heparin physiological saline was inserted through cardiac apex into the left ventricle to measure the left ventricular pressure (LVP) and left ventricular end-diastolic pressure (LVEDP), Peak positive and peak negative first derivatives of the LVP (+ LVdp/dt and − LVdp/dt) were calculated with the Acknowledge software. The systolic blood pressure (SBP), diastolic blood pressure (DBP) and mean arterial pressure (MAP) were measured by polyethylene catheter via the femoral artery, ECG □ was measured by a AC-601G ECG amplifier. The above-mentioned analog signal was input into a data acquisition workstation (MP100, BIOPAC Systems, USA) to a computer running Acknowledge (version 3.7.1).
After surgery, various indexes before administration were recorded until the indexes were stable, and then intravenous infusion administration was conducted. Thirty dogs were divided into five groups (six dogs in each group), the experiment groups were given 0.15, 0.3, 0.6 mg/kg of ASP-[…] respectively, the normal control group was given 1 ml/kg of solvent, and the positive control group was given 0.3 mg/kg of astragaloside IV. The delivery volumes were 15 ml for each dog was and the delivery velocity was 1 ml/min. The indexes were recorded at 5, 10, 15, 20, 30, 45, 60, 90 and 120 mins after drug administration. At the end of experiment, the hearts were excised and weighted. The myocardial blood flow for per hectogram (CF), coronary resistance (CR), cardiac index (CI), left ventricular work (LVW) and total peripheral resistance (TPR) were calculated according to the following formulae: CF=CBF×[…]/heart weight CR=MAP/CF CI=CO/0.11×(body weight)^2/3 LVW=CO×(MAP−5)×1.052×0.0136 TPR=MAP×79.92/CO
Data are expressed as mean±SD ( x±s), the paired t-test was used to compare the significance between before and after administration, the unpaired t-test was adopted for comparison between groups.

Structure (SMILES): CC(C)(O)[C@@H]1CC[C@](C)([C@H]2[C@@H](O)C[C@@]3(C)[C@@H]4C[C@H](O[C@@H]5O[C@H](CO)[C@@H](O)[C@H](O)[C@H]5O)[C@H]5C(C)(C)[C@@H](O[C@@H]6OC[C@@H](O)[C@H](O)[C@H]6O)CC[C@@]56C[C@@]46CC[C@]23C)O1 [astragaloside IV, reference compound]
- +LVdp/dtmax: significantly increased
- CO, CI and TPR: no significant effect
- LVEDP: significantly decreased
- LVSP, LVW and −LVdp/dtmax: no significant change
- CF (5 min after administration): 57.2 ± 14.0 ml/min/100 g
- CF change vs before administration (5 min after administration): (0.2 ± 3.5) ml/min/100 g
- CI (5 min after administration): 2.20 ± 0.59 L/min/m^2
- CI change vs before administration (5 min after administration): (0.06 ± 0.10) L/min/m^2
- CO (5 min after administration): 1.23 ± 0.36 L/min
- CO change vs before administration (5 min after administration): (0.03 ± 0.05) L/min
- CR (5 min after administration): 1.36 ± 0.47 mmHg/ml/min/100 g
- CR change vs before administration (5 min after administration): (−0.05 ± 0.07) mmHg/ml/min/100 g
- LVEDP (5 min after administration): 1.6 ± 1.4 mmHg
- LVEDP change vs before administration (5 min after administration): (−0.80 ± 0.81) mmHg
- LVP (5 min after administration): 104 ± 10 mmHg
- LVP change vs before administration (5 min after administration): (1.1 ± 6.5) mmHg
- LVW (5 min after administration): 1.22 ± 0.47 kg · m
- LVW change vs before administration (5 min after administration): (0.01 ± 0.05) kg · m
- TPR (5 min after administration): 5046 ± 1572 dyn · s/cm^5
- TPR change vs before administration (5 min after administration): (−178 ± 384) dyn · s/cm^5
- dp/dt (5 min after administration): 1082 ± 176 mmHg/s
- dp/dt change vs before administration (5 min after administration): (27 ± 75) mmHg/s
- −dp/dt (5 min after administration): −878 ± 179 mmHg/s
- −dp/dt change vs before administration (5 min after administration): (−43 ± 104) mmHg/s
- CF (10 min after administration): 59.0 ± 20.5 ml/min/100 g
- CF change vs before administration (10 min after administration): (2.0 ± 6.5) ml/min/100 g
- CI (10 min after administration): 2.21 ± 0.52 L/min/m^2
- CI change vs before administration (10 min after administration): (0.07 ± 0.08) L/min/m^2
- CO (10 min after administration): 1.24 ± 0.32 L/min
- CO change vs before administration (10 min after administration): (0.04 ± 0.05) L/min
- CR (10 min after administration): 1.39 ± 0.45 mmHg/ml/min/100 g
- CR change vs before administration (10 min after administration): (−0.01 ± 0.12) mmHg/ml/min/100 g
- LVEDP (10 min after administration): 1.7 ± 1.3 mmHg
- LVEDP change vs before administration (10 min after administration): (−0.73 ± 0.54) mmHg
- LVP (10 min after administration): 105 ± 10 mmHg
- LVP change vs before administration (10 min after administration): (2.5 ± 11.7) mmHg
- LVW (10 min after administration): 1.26 ± 0.39 kg · m
- LVW change vs before administration (10 min after administration): (0.05 ± 0.13) kg · m
- TPR (10 min after administration): 5162 ± 1495 dyn · s/cm^5
- TPR change vs before administration (10 min after administration): (−62 ± 517) dyn · s/cm^5
- dp/dt (10 min after administration): 1141 ± 136 mmHg/s
- dp/dt change vs before administration (10 min after administration): (86 ± 61) mmHg/s
- −dp/dt (10 min after administration): −882 ± 163 mmHg/s
- −dp/dt change vs before administration (10 min after administration): (−46 ± 118) mmHg/s
- CF (15 min after administration): 57.0 ± 22.3 ml/min/100 g
- CF change vs before administration (15 min after administration): (0.0 ± 7.2) ml/min/100 g
- CI (15 min after administration): 2.16 ± 0.51 L/min/m^2
- CI change vs before administration (15 min after administration): (0.02 ± 0.07) L/min/m^2
- CO (15 min after administration): 1.21 ± 0.30 L/min
- CO change vs before administration (15 min after administration): (0.01 ± 0.04) L/min
- CR (15 min after administration): 1.46 ± 0.50 mmHg/ml/min/100 g
- CR change vs before administration (15 min after administration): (0.06 ± 0.15) mmHg/ml/min/100 g
- LVEDP (15 min after administration): 1.0 ± 1.2 mmHg
- LVEDP change vs before administration (15 min after administration): (−1.40 ± 0.54) mmHg
- LVP (15 min after administration): 103 ± 12 mmHg
- LVP change vs before administration (15 min after administration): (−0.3 ± 12.2) mmHg
- LVW (15 min after administration): 1.22 ± 0.35 kg · m
- LVW change vs before administration (15 min after administration): (0.01 ± 0.16) kg · m
- TPR (15 min after administration): 5319 ± 1695 dyn · s/cm^5
- TPR change vs before administration (15 min after administration): (95 ± 662) dyn · s/cm^5
- dp/dt (15 min after administration): 1167 ± 157 mmHg/s
- dp/dt change vs before administration (15 min after administration): (112 ± 31) mmHg/s
- −dp/dt (15 min after administration): −847 ± 141 mmHg/s
- −dp/dt change vs before administration (15 min after administration): (−12 ± 124) mmHg/s
- CF (20 min after administration): 59.1 ± 21.2 ml/min/100 g
- CF change vs before administration (20 min after administration): (2.1 ± 7.3) ml/min/100 g
- CI (20 min after administration): 2.15 ± 0.44 L/min/m^2
- CI change vs before administration (20 min after administration): (0.00 ± 0.10) L/min/m^2
- CO (20 min after administration): 1.20 ± 0.27 L/min
- CO change vs before administration (20 min after administration): (0.00 ± 0.06) L/min
- CR (20 min after administration): 1.37 ± 0.42 mmHg/ml/min/100 g
- CR change vs before administration (20 min after administration): (−0.03 ± 0.16) mmHg/ml/min/100 g
- LVEDP (20 min after administration): 1.0 ± 1.1 mmHg
- LVEDP change vs before administration (20 min after administration): (−1.46 ± 0.68) mmHg
- LVP (20 min after administration): 104 ± 11 mmHg
- LVP change vs before administration (20 min after administration): (1.2 ± 16.2) mmHg
- LVW (20 min after administration): 1.2 ± 0.31 kg · m
- LVW change vs before administration (20 min after administration): (−0.01 ± 0.22) kg · m
- TPR (20 min after administration): 5203 ± 1464 dyn · s/cm^5
- TPR change vs before administration (20 min after administration): (−21 ± 735) dyn · s/cm^5
- dp/dt (20 min after administration): 1165 ± 112 mmHg/s
- dp/dt change vs before administration (20 min after administration): (110 ± 67) mmHg/s
- −dp/dt (20 min after administration): −875 ± 105 mmHg/s
- −dp/dt change vs before administration (20 min after administration): (−39 ± 142) mmHg/s
- CF (30 min after administration): 57.8 ± 16.6 ml/min/100 g
- CF change vs before administration (30 min after administration): (0.8 ± 3.2) ml/min/100 g
- CI (30 min after administration): 2.08 ± 0.48 L/min/m^2
- CI change vs before administration (30 min after administration): (−0.07 ± 0.17 ^ L/min/m^2
- CO (30 min after administration): 1.16 ± 0.29 L/min
- CO change vs before administration (30 min after administration): (−0.04 ± 0.09) L/min
- CR (30 min after administration): 1.41 ± 0.47 mmHg/ml/min/100 g
- CR change vs before administration (30 min after administration): (0.00 ± 0.13) mmHg/ml/min/100 g
- LVEDP (30 min after administration): 1.0 ± 1.4 mmHg
- LVEDP change vs before administration (30 min after administration): (−1.44 ± 0.90) mmHg
- LVP (30 min after administration): 102 ± 11 mmHg
- LVP change vs before administration (30 min after administration): (−0.7 ± 13.7) mmHg
- LVW (30 min after administration): 1.19 ± 0.40 kg · m
- LVW change vs before administration (30 min after administration): (−0.02 ± 0.15) kg · m

From patent US8835134B2, “Cycloastragenol monoglucoside, preparation, pharmaceutical composition and application thereof” (Tianjin Institute of Pharmaceutical Research, priority 2007, dated 2014)
